Source: PubChem BioAssay (NCI)
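The concentration for 50% growth inhibition is given as GI50. Definition used: TGI = concentration required for complete inhibition of growth.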

Legend:
Experiment in all cases: NCI tumour cell line growth inhibition, 384-well format
[1] = system: 786-0 renal
[2] = system: A498 renal
[3] = system: A549 NSCLC
[4] = system: ACHN renal
[5] = system: BT-549 breast
[6] = system: CAKI-1 renal
[7] = system: CCRF-CEM leukemia
[8] = system: COLO 205 colon
[9] = system: DU-145 prostate
[10] = system: HCC-2998 colon
[11] = system: HCT-116 colon
[12] = system: HCT-15 colon
[13] = system: HL-60(TB) leukemia
[14] = system: HOP-62 NSCLC
[15] = system: HT29 colon
[16] = system: IGROV1 ovarian
[17] = system: K-562 leukemia
[18] = system: KM12 colon
[19] = system: LOX IMVI melanoma
[20] = system: M14 melanoma
[21] = system: MALME-3M melanoma
[22] = system: MCF7 breast
[23] = system: MDA-MB-231 breast
[24] = system: MDA-MB-435 melanoma
[25] = system: MDA-MB-468 breast
[26] = system: MOLT-4 leukemia
[27] = system: NCI-H226 lung
[28] = system: NCI-H23 lung
[29] = system: NCI-H322M lung
[30] = system: NCI-H460 NSCLC
[31] = system: NCI-H522 lung
[32] = system: NCI/ADR-RES ovarian
[33] = system: OVCAR-3 ovarian
[34] = system: OVCAR-5 ovarian
[35] = system: PC-3 prostate
[36] = system: RPMI-8226 leukemia
[37] = system: RXF 393 renal
[38] = system: SF-268 CNS
[39] = system: SF-295 CNS
[40] = system: SF-539 CNS
[41] = system: SK-MEL-2 melanoma
[42] = system: SK-MEL-28 melanoma
[43] = system: SK-MEL-5 melanoma
[44] = system: SK-OV-3 ovarian
[45] = system: SN12C renal
[46] = system: SNB-19 CNS
[47] = system: SR leukemia
[48] = system: SW-620 colon
[49] = system: T-47D breast
[50] = system: TK-10 renal
[51] = system: U251 glioblastoma
[52] = system: UACC-257 melanoma
[53] = system: UACC-62 melanoma
[54] = system: UO-31 renal

With `COc1cc2nccc(Oc3ccc(NC(=O)c4cn(C(C)C)c(=O)n(-c5ccc(F)cc5)c4=O)cc3F)c2cc1OC` the GI50 [1] was 18.9 µM, the TGI [1] was greater than 100 µM and the GI50 [2] was 3.41 µM. It also gave a TGI [2] greater than 100 µM, a GI50 [3] of 4.67 µM and a TGI [3] greater than 100 µM. The GI50 [4] was 1.75 µM, the TGI [4] was 5.13 µM and the GI50 [5] was 5.27 µM. For the same compound, the TGI [5] was greater than 100 µM, the GI50 [6] was 1.46 µM and the TGI [6] was 2.81 µM. The GI50 [7] was greater than 100 µM, the TGI [7] was greater than 100 µM and the GI50 [8] was greater than 100 µM. The TGI [8] was greater than 100 µM, the GI50 [9] was greater than 100 µM and the TGI [9] was greater than 100 µM. It also gave a GI50 [10] greater than 100 µM, a TGI [10] greater than 100 µM and a GI50 [11] of 5.93 µM. It also gave a TGI [11] greater than 100 µM, a GI50 [12] greater than 100 µM and a TGI [12] greater than 100 µM. The GI50 [13] was 2.6 µM, the TGI [13] was greater than 100 µM and the GI50 [14] was 15 µM. The TGI [14] was greater than 100 µM, the GI50 [15] was 7.99 µM and the TGI [15] was greater than 100 µM. The GI50 [16] was 5.5 µM, the TGI [16] was greater than 100 µM and the GI50 [17] was 0.0235 µM. It also gave a TGI [17] of 0.137 µM, a GI50 [18] of 0.0315 µM and a TGI [18] greater than 100 µM. The GI50 [19] was greater than 100 µM, the TGI [19] was greater than 100 µM and the GI50 [20] was 82.6 µM. It also gave a TGI [20] greater than 100 µM, a GI50 [21] of 2.85 µM and a TGI [21] greater than 100 µM. It also gave a GI50 [22] of 7.28 µM, a TGI [22] greater than 100 µM and a GI50 [23] of 3.06 µM. The TGI [23] was greater than 100 µM, the GI50 [24] was greater than 100 µM and the TGI [24] was greater than 100 µM. For the same compound, the GI50 [25] was 6.91 µM, the TGI [25] was greater than 100 µM and the GI50 [26] was 0.407 µM. For the same compound, the TGI [26] was 4.2 µM, the GI50 [27] was 3.81 µM and the TGI [27] was 61.4 µM. The GI50 [28] was 0.0469 µM, the TGI [28] was greater than 100 µM and the GI50 [29] was greater than 100 µM. For the same compound, the TGI [29] was greater than 100 µM, the GI50 [30] was 4.01 µM and the TGI [30] was greater than 100 µM. For the same compound, the GI50 [31] was 1.65 µM, the TGI [31] was 5.66 µM and the GI50 [32] was greater than 100 µM. The TGI [32] was greater than 100 µM, the GI50 [33] was greater than 100 µM and the TGI [33] was greater than 100 µM. It also gave a GI50 [34] greater than 100 µM, a TGI [34] greater than 100 µM and a GI50 [35] of 18.4 µM. It also gave a TGI [35] greater than 100 µM, a GI50 [36] of 3.95 µM and a TGI [36] greater than 100 µM. It also gave a GI50 [37] of 0.63 µM, a TGI [37] of 4.89 µM and a GI50 [38] of 3.37 µM. It also gave a TGI [38] greater than 100 µM, a GI50 [39] of 0.271 µM and a TGI [39] greater than 100 µM. For the same compound, the GI50 [40] was 1.3 µM, the TGI [40] was 2.85 µM and the GI50 [41] was 2.29 µM. The TGI [41] was 9.87 µM, the GI50 [42] was 2.97 µM and the TGI [42] was greater than 100 µM. It also gave a GI50 [43] of 4.94 µM, a TGI [43] greater than 100 µM and a GI50 [44] of 5.58 µM. It also gave a TGI [44] greater than 100 µM, a GI50 [45] of 0.642 µM and a TGI [45] greater than 100 µM. It also gave a GI50 [46] greater than 100 µM, a TGI [46] greater than 100 µM and a GI50 [47] of 2.69 µM. The TGI [47] was 20.6 µM, the GI50 [48] was 9.13 µM and the TGI [48] was greater than 100 µM. It also gave a GI50 [49] of 1.5 µM, a TGI [49] of 6.25 µM and a GI50 [50] of 96.6 µM. The TGI [50] was greater than 100 µM, the GI50 [51] was greater than 100 µM and the TGI [51] was greater than 100 µM. The GI50 [52] was 2.33 µM, the TGI [52] was 8.74 µM and the GI50 [53] was 4.5 µM. The TGI [53] was greater than 100 µM, the GI50 [54] was 0.246 µM and the TGI [54] was 0.65 µM.
